From patent publication US9073911B2, “Pyrazole derivatives” (HOFFMANN-LA ROCHE INC., priority 2011, dated 2015)
Structures can show the parent of a compound that is named as a salt.

Legend:
[1] = molecular target: mouse TAAR1 (Mus musculus (Mouse), UniProt Q923Y8); assay: Radioligand binding assay on mouse TAAR1; settings: membranes of HEK-293 cells stably expressing mouse TAAR1; first value of cell mouse/rat
Experimental: (§1) Construction of TAAR Expression Plasmids and Stably Transfected Cell Lines
(§2) For the construction of expression plasmids the coding sequences of human, rat and mouse TAAR 1 were amplified from genomic DNA essentially as described by Lindemann et al.. The Expand High Fidelity PCR System (Roche Diagnostics) was used with 1.5 mM Mg^2+ and purified PCR products were cloned into pCR2.1-TOPO cloning vector (Invitrogen) following the instructions of the manufacturer. PCR products were subcloned into the pIRESneo2 vector (BD Clontech, Palo Alto, Calif.), and expression vectors were sequence verified before introduction in cell lines.
(§3) HEK293 cells (ATCC # CRL-1573) were cultured essentially as described by Lindemann et al. (2005). For the generation of stably transfected cell lines HEK293 cells were transfected with the pIRESneo2 expression plasmids containing the TAAR coding sequences (described above) with Lipofectamine 2000 (Invitrogen) according to the instructions of the manufacturer, and 24 hrs post transfection the culture medium was supplemented with 1 mg/ml G418 (Sigma, Buchs, Switzerland). After a culture period of about 10 d clones were isolated, expanded and tested for responsiveness to trace amines (all compounds purchased from Sigma) with the cAMP Biotrak Enzyme immunoassay (EIA) System (Amersham) following the non-acetylation EIA procedure provided by the manufacturer.
Radioligand Binding Assay on Mouse TAAR1
(§4) Membrane Preparation and Radioligand Binding.
HEK-293 cells stably expressing mouse TAAR1 were maintained at 37° C. and 5% CO2 in DMEM high glucose medium, containing fetal calf serum (10%, heat inactivated for 30 min at 56° C.), penicillin/streptomycin (1%), and 375 μg/ml geneticin (Gibco). Cells were released from culture flasks using trypsin/EDTA, harvested, washed twice with ice-cold PBS (without Ca^2+ and Mg^2+), pelleted at 1,000 rpm for 5 min at 4° C., frozen and stored at −80° C. Frozen pellets were suspended in 20 ml HEPES-NaOH (20 mM, pH 7.4) containing 10 mM EDTA and homogenized with a Polytron (PT 6000, Kinematica) at 14,000 rpm for 20 s. The homogenate was centrifuged at 48,000×g for 30 min at 4° C. Subsequently, the supernatant was removed and discarded, and the pellet resuspended in 20 ml HEPES-NaOH (20 mM, pH 7.4) containing 0.1 mM EDTA using the Polytron (20 s at 14,000 rpm). This procedure was repeated and the final pellet resuspended in HEPES-NaOH containing 0.1 mM EDTA and homogenized using the Polytron. Typically, aliquots of 2 ml membrane portions were stored at −80° C. With each new membrane batch the dissociation constant (Kd) was determined via a saturation curve. The TAAR1 radioligand ^3[H]—(S)-4-[(ethyl-phenyl-amino)-methyl]-4,5-dihydro-oxazol-2-ylamine (described in WO 2008/098857) was used at a concentration equal to the calculated Kd value, that was usually around 0.7 nM, resulting in the binding of approximately 0.5% of the radioligand and a specific binding representing approximately 70% of the total binding. Nonspecific binding was defined as the amount of ^3[H]—(S)-4-[(ethyl-phenyl-amino)-methyl]-4,5-dihydro-oxazol-2-ylamine bound in the presence of 10 μM unlabeled ligand. All compounds were tested at a broad range of concentrations ([…]) in duplicates. […] The 96 deep well plates were incubated for 1 hr at 4° C. Incubations were terminated by rapid filtration through Unifilter-96 plates (Packard Instrument Company) and glass filters GF/C (Perkin Elmer) presoaked for 1 hr in polyethylenimine (0.3%) and washed 3 times with 1 ml of cold binding buffer. After addition of 45 μl of Microscint 40 (PerkinElmer) the Unifilter-96 plate was sealed and after 1 hr the radioactivity counted using a TopCount Microplate Scintillation Counter (Packard Instrument Company).

[2] = molecular target: rat TAAR1 (Rattus norvegicus (Rat), UniProt Q923Y9); assay: Radioligand binding assay on rat TAAR1; settings: membranes of HEK-293 cells stably expressing rat TAAR1; second value of cell mouse/rat
Chain of rat TAAR1 (Q923Y9 whole entry): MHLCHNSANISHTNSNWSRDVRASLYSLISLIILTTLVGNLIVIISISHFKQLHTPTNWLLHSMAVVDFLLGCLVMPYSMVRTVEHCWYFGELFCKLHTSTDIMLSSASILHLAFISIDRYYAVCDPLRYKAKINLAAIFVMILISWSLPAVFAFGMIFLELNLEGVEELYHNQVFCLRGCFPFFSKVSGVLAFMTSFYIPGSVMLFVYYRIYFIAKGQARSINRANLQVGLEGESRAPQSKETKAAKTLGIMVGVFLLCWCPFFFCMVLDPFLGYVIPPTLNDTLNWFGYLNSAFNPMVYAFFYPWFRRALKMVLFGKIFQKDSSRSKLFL
Experimental: as §1, §2, §3
Radioligand Binding Assay on rat TAAR1
as §4
HEK-293 cells stably expressing rat TAAR1 were maintained at 37° C. and 5% CO2 in DMEM high glucose medium, containing fetal calf serum (10%, heat inactivated for 30 min at 56° C.), penicillin/streptomycin (1%), and 375 μg/ml geneticin (Gibco). Cells were released from culture flasks using trypsin/EDTA, harvested, washed twice with ice-cold PBS (without Ca^2+ and Mg^2+), pelleted at 1,000 rpm for 5 min at 4° C., frozen and stored at −80° C. Frozen pellets were suspended in 20 ml HEPES-NaOH (20 mM, pH 7.4) containing 10 mM EDTA and homogenized with a Polytron (PT 6000, Kinematica) at 14,000 rpm for 20 s. The homogenate was centrifuged at 48,000×g for 30 min at 4° C. Subsequently, the supernatant was removed and discarded, and the pellet resuspended in 20 ml HEPES-NaOH (20 mM, pH 7.4) containing 0.1 mM EDTA using the Polytron (20 s at 14,000 rpm). This procedure was repeated and the final pellet resuspended in HEPES-NaOH containing 0.1 mM EDTA and homogenized using the Polytron. Typically, aliquots of 2 ml membrane portions were stored at −80° C. With each new membrane batch the dissociation constant (Kd) was determined via a saturation curve.
Nonspecific binding was defined as the amount of ^3-[H]-(S)-4-[(ethyl-phenyl-amino)-methyl]-4,5-dihydro-oxazol-2-ylamine bound in the presence of 10 μM unlabeled ligand. All compounds were tested at a broad range of concentrations (10 pM to 10 μM) in duplicates. […] The 96 deep well plates were incubated for 1 hr at 4° C. Incubations were terminated by rapid filtration through Unifilter-96 plates (Packard Instrument Company) and glass filters GF/C (Perkin Elmer) presoaked for 1 hr in polyethylenimine (0.3%) and washed 3 times with 1 ml of cold binding buffer. After addition of 45 μl of Microscint 40 (PerkinElmer) the Unifilter-96 plate was sealed and after 1 hr the ratioactivity counted using a TopCount Microplate Scintillation Counter (Packard Instrument Company).

Chain of mouse TAAR1 (Q923Y8 whole entry): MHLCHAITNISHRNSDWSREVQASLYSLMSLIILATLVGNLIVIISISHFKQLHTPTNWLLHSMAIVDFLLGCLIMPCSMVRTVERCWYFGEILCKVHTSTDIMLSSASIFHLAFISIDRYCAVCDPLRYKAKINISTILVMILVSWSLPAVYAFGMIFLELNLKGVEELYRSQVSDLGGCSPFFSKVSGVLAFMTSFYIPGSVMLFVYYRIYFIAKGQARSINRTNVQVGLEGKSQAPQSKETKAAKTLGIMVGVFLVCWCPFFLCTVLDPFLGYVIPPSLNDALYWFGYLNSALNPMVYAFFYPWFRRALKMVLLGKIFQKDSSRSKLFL

Row | Compound | Ki [1] [µM] | Ki [2] [µM]
1 | N#Cc1cccc(-c2cc(C(=O)Nc3ccc([C@H]4CCCNC4)cc3)[nH]n2)c1 [Example 37, (R)-3-(3-Cyanophenyl)-N-(4-(piperidin-3-yl)phenyl)-1H-pyrazole-5-carboxamide hydrochloride] | 0.0017 | 0.0027
2 | O=C(Nc1ccc([C@H]2CNCCO2)cc1)c1ccn(-c2ccnc(C(F)(F)F)n2)n1 [Example 54, (S)—N-(4-(Morpholin-2-yl)phenyl)-1-(2-(trifluoromethyl)pyrimidin-4-yl)-1H-pyrazole-3-carboxamide hydrochloride] | 0.0065 | 0.0088
3 | O=C(Nc1ccc([C@@H]2CNCCO2)cc1)c1ccn(-c2ccc(F)cc2)n1 [Example 31, (R)-1-(4-Fluorophenyl)-N-(4-(morpholin-2-yl)phenyl)-1H-pyrazole-3-carboxamide hydrochloride] | 0.0013 | 0.0024
4 | N#Cc1cccc(-c2cc(C(=O)Nc3ccc(C4CCNC4)cc3)[nH]n2)c1 (racemic) [Example 38, (rac) 3-(3-Cyanophenyl)-N-(4-(pyrrolidin-3-yl)phenyl)-1H-pyrazole-5-carboxamide hydrochloride] | 0.0021 | 0.0042
5 | Cn1nc(-c2ccc(F)cc2)cc1C(=O)Nc1ccc(C2CNCCO2)cc1 (stereo in doubt) [Example 22, (S)-3-(4-fluorophenyl)-1-methyl-N-(4-(morpholin-2-yl)phenyl)-1H-pyrazole-5-carboxamide hydrochloride] | 0.0023 | 0.0022
6 | O=C(Nc1ccc([C@H]2CNCCO2)cc1)c1ccn(-c2cnc(Cl)cn2)n1 [Example 50, (S)-1-(5-Chloropyrazin-2-yl)-N-(4-(morpholin-2-yl)phenyl)-1H-pyrazole-3-carboxamide hydrochloride] | 0.0027 | 0.0091
7 | O=C(Nc1ccc([C@H]2CNCCO2)cc1)c1ccn(-c2ncc(C(F)(F)F)cn2)n1 [Example 47, (S)—N-(4-(Morpholin-2-yl)phenyl)-1-(5-(trifluoromethyl)pyrimidin-2-yl)-1H-pyrazole-3-carboxamide hydrochloride] | 0.0198 | 0.0196
8 | Cn1nc(-c2ccccc2)cc1C(=O)Nc1ccc([C@H]2CNCCO2)cc1 [Example 5, (S)-1-methyl-N-(4-(morpholin-2-yl)phenyl)-3-phenyl-1H-pyrazole-5-carboxamide hydrochloride] | 0.0072 | 0.0045
9 | N#Cc1ccc(-n2ccc(C(=O)Nc3ccc([C@H]4CNCCO4)cc3)n2)cc1 [Example 34, (S)-1-(4-Cyanophenyl)-N-(4-(morpholin-2-yl)phenyl)-1H-pyrazole-3-carboxamide hydrochloride] | 0.0037 | 0.0092
10 | O=C(Nc1ccc([C@@H]2CNCCO2)cc1)c1ccn(-c2ccc(C(F)(F)F)cn2)n1 [Example 35, (R)—N-(4-(Morpholin-2-yl)phenyl)-1-(5-(trifluoromethyl)pyridin-2-yl)-1H-pyrazole-3-carboxamide hydrochloride] | 0.0022 | 0.0006
11 | O=C(Nc1ccc([C@@H]2CNCCO2)cc1)c1cc(-c2cccc(Cl)c2)n[nH]1 [Example 15, (R)-3-(3-chlorophenyl)-N-(4-(morpholin-2-yl)phenyl)-1H-pyrazole-5-carboxamide hydrochloride] | 0.0006 | 0.0004
12 | CCn1nc(-c2cccc(C#N)c2)cc1C(=O)Nc1ccc([C@H]2CNCCO2)cc1 [Example 25, (S)-3-(3-cyanophenyl)-1-ethyl-N-(4-(morpholin-2-yl)phenyl)-1H-pyrazole-5-carboxamide hydrochloride] | 0.0051 | 0.0078

The remaining lines, values ahead:

Row | Ki [1] [µM] | Ki [2] [µM] | Compound
13 | 0.0021 | 0.0135 | Cc1c(C(=O)Nc2ccc([C@H]3CNCCO3)cc2)n[nH]c1-c1cccc(C#N)c1 [Example 27, (S)-5-(3-cyanophenyl)-4-methyl-N-(4-(morpholin-2-yl)phenyl)-1H-pyrazole-3-carboxamide hydrochloride]
14 | 0.0663 | 0.0262 | Cn1nc(-c2cccc(OC(F)F)c2)cc1C(=O)Nc1ccc([C@H]2CNCCO2)cc1 [Example 44, (S)-3-(3-(Difluoromethoxy)phenyl)-1-methyl-N-(4-(morpholin-2-yl)phenyl)-1H-pyrazole-5-carboxamide hydrochloride]
15 | 0.0026 | 0.0127 | COc1ccc(-c2cc(C(=O)Nc3ccc([C@H]4CNCCO4)cc3)[nH]n2)cc1OC [Example 11, (S)-3-(3,4-dimethoxyphenyl)-N-(4-(morpholin-2-yl)phenyl)-1H-pyrazole-5-carboxamide hydrochloride]
16 | 0.143 | 1.32 | O=C(Nc1ccc([C@H]2CNCCO2)cc1)c1ccnn1-c1ccccc1 [Example 30, (S)—N-(4-(Morpholin-2-yl)phenyl)-1-phenyl-1H-pyrazole-5-carboxamide hydrochloride]
17 | 0.0043 | 0.0129 | N#Cc1ccc(F)c(-c2cc(C(=O)Nc3ccc([C@H]4CNCCO4)cc3)n[nH]2)c1 [Example 28, (S)-5-(5-cyano-2-fluorophenyl)-N-(4-(morpholin-2-yl)phenyl)-1H-pyrazole-3-carboxamide hydrochloride]
18 | 0.0734 | 0.0316 | CCn1nc(-c2ccc(C#N)cc2)cc1C(=O)Nc1ccc([C@H]2CNCCO2)cc1 [Example 26, (S)-3-(4-cyanophenyl)-1-ethyl-N-(4-(morpholin-2-yl)phenyl)-1H-pyrazole-5-carboxamide hydrochloride]
19 | 0.0025 | 0.0016 | CCn1nc(C(=O)Nc2ccc([C@H]3CNCCO3)cc2)cc1-c1cccc(OC(F)F)c1 [Example 41, (S)-5-(3-(Difluoromethoxy)phenyl)-1-ethyl-N-(4-(morpholin-2-yl)phenyl)-1H-pyrazole-3-carboxamide hydrochloride]
20 | 0.0005 | 0.0026 | O=C(Nc1ccc([C@H]2CNCCO2)cc1)c1cc(-c2ccccc2Cl)n[nH]1 [Example 10, (S)-3-(2-chlorophenyl)-N-(4-(morpholin-2-yl)phenyl)-1H-pyrazole-5-carboxamide hydrochloride]
